Results: US20250064781A1, “METHODS OF TREATING, AMELIORATING, AND/OR PREVENTING STRESS-RELATED DISORDER” (Yale University, priority 2021, published 2025)
Entries after “also recorded” stand apart in the source; their conditions may differ. Counter-ions that a name gives are not always drawn. Like-named read-outs stand apart in the source and are kept apart here.

What was measured:
[1] = molecular target: T1, α1A-adrenergic receptor subtype (α1A-AR) (Homo sapiens, UniProt P35348); settings: Kenny et al., cited from earlier work; for pKi for α1A-AR: cloned human receptor, Br J Pharmacol. 1996; for α1-adrenoceptor subtype preference (in words): as previously reported
T1 sequence (P35348 1-466): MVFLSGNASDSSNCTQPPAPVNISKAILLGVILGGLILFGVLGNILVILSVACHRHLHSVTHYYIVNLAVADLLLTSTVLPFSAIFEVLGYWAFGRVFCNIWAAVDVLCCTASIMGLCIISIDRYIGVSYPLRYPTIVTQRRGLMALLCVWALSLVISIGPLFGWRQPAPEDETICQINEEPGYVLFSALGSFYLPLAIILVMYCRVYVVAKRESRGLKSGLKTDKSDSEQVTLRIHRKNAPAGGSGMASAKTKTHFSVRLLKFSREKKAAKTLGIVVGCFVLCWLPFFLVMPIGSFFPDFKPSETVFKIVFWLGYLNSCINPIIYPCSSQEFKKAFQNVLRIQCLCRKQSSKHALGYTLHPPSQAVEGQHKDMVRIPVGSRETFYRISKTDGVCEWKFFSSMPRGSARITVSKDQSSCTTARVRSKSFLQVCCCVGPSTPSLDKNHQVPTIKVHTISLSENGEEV

[2] = molecular target: T2, α1D-adrenergic receptor subtype (α1D-AR) (Homo sapiens, UniProt P25100); settings: cited from earlier work
T2 sequence (P25100 1-572): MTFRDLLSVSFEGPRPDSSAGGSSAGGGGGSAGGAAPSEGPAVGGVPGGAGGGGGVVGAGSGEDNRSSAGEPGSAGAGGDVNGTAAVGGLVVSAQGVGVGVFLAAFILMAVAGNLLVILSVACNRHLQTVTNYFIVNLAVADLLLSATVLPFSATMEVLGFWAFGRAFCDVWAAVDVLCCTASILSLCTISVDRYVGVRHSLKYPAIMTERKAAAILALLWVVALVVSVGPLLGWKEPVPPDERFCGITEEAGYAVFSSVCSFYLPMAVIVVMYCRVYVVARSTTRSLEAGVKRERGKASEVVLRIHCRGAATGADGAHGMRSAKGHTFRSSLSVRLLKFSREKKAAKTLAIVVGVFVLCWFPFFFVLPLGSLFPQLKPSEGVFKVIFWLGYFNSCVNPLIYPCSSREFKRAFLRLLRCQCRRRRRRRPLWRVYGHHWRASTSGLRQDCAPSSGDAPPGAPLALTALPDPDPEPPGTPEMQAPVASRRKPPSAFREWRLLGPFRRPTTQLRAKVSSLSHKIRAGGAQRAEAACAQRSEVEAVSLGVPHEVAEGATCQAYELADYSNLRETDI

[3] = molecular target: T3, α1B-adrenergic receptor subtype (α1B-AR) (Homo sapiens, UniProt P35368); settings: cited from earlier work
T3 sequence (P35368 1-520): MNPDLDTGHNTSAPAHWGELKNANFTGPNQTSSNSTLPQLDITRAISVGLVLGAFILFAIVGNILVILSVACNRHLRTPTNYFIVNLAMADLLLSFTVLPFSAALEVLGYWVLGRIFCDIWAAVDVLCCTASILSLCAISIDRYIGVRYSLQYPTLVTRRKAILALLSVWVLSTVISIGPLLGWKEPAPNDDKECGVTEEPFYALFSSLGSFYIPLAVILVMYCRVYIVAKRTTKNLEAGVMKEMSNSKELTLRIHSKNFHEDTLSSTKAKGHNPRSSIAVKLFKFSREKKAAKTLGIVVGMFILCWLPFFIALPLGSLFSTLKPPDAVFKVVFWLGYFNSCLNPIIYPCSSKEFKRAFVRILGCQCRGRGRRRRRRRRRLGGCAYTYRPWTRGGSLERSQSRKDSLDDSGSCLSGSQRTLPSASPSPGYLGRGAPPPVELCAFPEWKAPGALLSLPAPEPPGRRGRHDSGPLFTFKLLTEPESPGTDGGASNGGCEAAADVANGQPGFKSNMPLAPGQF

[4] = tested on: rhesus monkeys performing a spatial working memory task; test: spatial working memory task (oculomotor delayed response, ODR) in monkeys exposed to stress; assay type: in vivo, Rhesus monkeys (Macaca mulatta); settings: for performance (percent correct) in spatial working memory task under stress / performance in spatial working memory task under stress: versus VEH+STRESS; for effect on stress-induced prefrontal deficits: rhesus monkeys, dose not stated; for performance in spatial working memory task under stress: FIGS. 3 and 4, 0.1 mg/kg pretreatment before the stressor
Description: Rhesus monkeys (Macaca mulatta) exposed to stress or vehicle and administered with RS17053 (“RS17”) or vehicle (“VEH”) (FIG. 1) or administered with silodosin (“SIL”) or vehicle (“VEH”) were subjected to the oculomotor delayed response (ODR) tasks similar to those as described previously (Datta et al., J Neurosci. 2019 Apr. 3;39(14):2722-2734, the entirety of the journal article is hereby incorporated herein by reference). Specifically, the experiments were performed as the follows:
The monkeys were seated in primate chairs with their heads fixed and faced a 27-inch computer monitor 30 inches in front of them. The monkeys' eye positions were monitored with the ISCAN Eye Movement Monitoring System. The monkeys were pretrained on the visuospatial ODRtask, which required the subject to make a memory-guided saccade to a remembered visuospatial target. The ODR task was generated by the PICTO system (custom-designed, Windows-based data acquisition software). A central small white circle was illuminated on the computer monitor, which served as the fixation target. To initiate a trial, the animal fixated this central target and maintained fixation for 0.5 s (fixation period), whereupon a cue (the same sized white circle) was illuminated for a period of 0.5 s (cue period) at 1 of 8 peripheral targets located at an eccentricity of 13° with respect to the fixation spot. After the cue was extinguished, a 2.5 s delay period followed. The subject was required to maintain central fixation throughout both the cue presentation and the delay period. At the end of the delay, the fixation spot was extinguished, which instructed the monkey to make a memory-guided saccade to the location where the cue had been shown before the delay period. A trial was considered successful if the subject's response was completed within 0.5 s of the offset of the fixation spot and was within 2° around the correct cue location. The subject was rewarded with fruit juice immediately after every successful response. The position of the stimulus was randomized over trials such that it had to be remembered on a triα1-by-trial basis. The intertrial intervals (ITIs) were at least 3 s. The subject performed 1000-1500 trials per session.

[5] = molecular target: T1, α1A-adrenergic receptor subtype (α1A-AR); settings: concluded from the Kenny et al. pKi values
[6] = cloned human receptor, Kenny et al., Br J Pharmacol. 1996
[7] = CHMP assessment report for Silodyx
[8] = Williams et al. Br J Pharmacol. 1999

Row | Compound | pKi for α1A-AR [1] | pKi for α1D-AR [2, 6] | α1-adrenoceptor subtype preference (in words) [1] | pKi for α1B-AR [3, 6] | effect on stress-induced prefrontal deficits [4] | performance in spatial working memory task under stress [4] | further results
1 | 1-(4-amino-6,7-dimethoxy-2-quinazolinyl)-4-[[2-methoxy-6-(1-methylethyl)phenoxy]acetyl]piperazine [Rec 15/2739] | 9.0±0.07 | 8.6±0.07 | – | – | – | – | –
2 | CC(C)(Cc1c[nH]c2ccc(Cl)cc12)NCCOc1ccccc1OCC1CC1 [RS17053, N-[2-(2-cyclopropylmethoxyphenoxy)ethyl]-5-chloro-α,α-dimethyl-1H-indole-3-ethanamine] | 8.6±0.09 | 7.1±0.09 | strong preference for α1A-AR | 7.3±0.09 | completely blocked the stress-induced prefrontal deficits | – | performance (percent correct) in spatial working memory task under stress ([4]; FIG. 1, pretreatment 0.1 mg/kg-1 mg/kg before the stressor): protected from stress exposure; performance (percent correct) in spatial working memory task under stress ([4]; FIG. 2, low dose 0.01 mg/kg pretreatment before the stressor): blocked the stress-induced prefrontal deficits; also recorded: protected from stress exposure; effect on spatial working memory performance without stress ([4]; monkeys not subjected to stress, VEH+VEH vs. RS17+VEH): no significant effect
3 | CCOc1ccccc1OCCNC(C)Cc1ccc(OC)c(S(N)(=O)=O)c1 (centres unmarked) [tamsulosin, 5-(2-{[2-(2-Ethoxyphenoxy)ethyl]amino}propyl)-2-methoxybenzene-1-sulfonamide] | – | 8.1±0.04 | preference for α1A-AR and α1D-AR over α1B-AR | 7.0±0.08 | effective for treating disorders consequent of stress | protected from stress exposure | effect on stress-induced prefrontal deficits ([4]; listed as tamulosin): completely blocked the stress-induced prefrontal deficits
4 | C[C@H](Cc1cc2c(c(C(N)=O)c1)N(CCCO)CC2)NCCOc1ccccc1OCC(F)(F)F [silodosin] | – | – | – | – | completely blocked the stress-induced prefrontal deficits | protected from stress exposure | pKi for α1B-AR [3, 7]: 8.19; pKi for α1D-AR [2, 7]: 8.66
5 | COc1cc2nc(N3CCN(C(=O)C4COc5ccccc5O4)CC3)nc(N)c2cc1OC (centres unmarked) [doxazosin] | – | – | – | – | – | – | α1-adrenoceptor subtype preference (in words) [5]: has a preference for the α1B subtype, rather than the α1A subtype
6 | Cc1c[nH]c(=O)n(CCCN2CCN(c3ccccc3OCC(F)(F)F)CC2)c1=O [RS 100329 hydrochloride, 5-Methyl-3-[3-[3-[4-[2-(2,2,2,-trifluroethoxy)phenyl]-1-piperazinyl]propyl]-2,4-(1H,3H)-pyrimidinedione hydrochloride] | – | – | – | – | – | – | selectivity for α1A-AR over α1B-AR [3, 8]: 126 fold; selectivity for α1A-AR over α1D-AR [2, 8]: 50 fold
